Patent EP3027591B1, “NOVEL DERIVATIVES OF A 3,4-DIHYDROISOQUINOLINE-3-CARBOXYLIC ACID HAVING ANTI-CANCER PROPERTIES, A METHOD FOR THEIR SYNTHESIS, PHARMACEUTICAL COMPOSITIONS COMPRISING SAID DERIVATIVES, AND THEIR USE” (Narodowy Instytut Zdrowia Publicznego Panstwowy Zaklad …, priority 2013, dated 2015)
Values after ≈ are worked out from the molar mass of the structure shown. Read-outs that look alike come from different tables or passages of the source.

Columns and labels:
[1] = target: T1, pig kidney microsomal leucyl aminopeptidase, Type IV-S (Sus scrofa, UniProt P15145); assay: Leucyl aminopeptidase inhibition (L-leucine p-nitroanilide substrate, absorbance 405 nm); assay type: biochemical; conditions: pre-incubation 30 minutes at 37 °C, pH 8.5; IC50 by linear regression
T1 construct: pig kidney microsomal leucyl aminopeptidase, Type IV-S (Sigma-Aldrich) 3.5 mg of protein/ml; purchased Sigma-Aldrich; host or cells: pig kidney (microsomal fraction)
T1 sequence (P15145 1-963): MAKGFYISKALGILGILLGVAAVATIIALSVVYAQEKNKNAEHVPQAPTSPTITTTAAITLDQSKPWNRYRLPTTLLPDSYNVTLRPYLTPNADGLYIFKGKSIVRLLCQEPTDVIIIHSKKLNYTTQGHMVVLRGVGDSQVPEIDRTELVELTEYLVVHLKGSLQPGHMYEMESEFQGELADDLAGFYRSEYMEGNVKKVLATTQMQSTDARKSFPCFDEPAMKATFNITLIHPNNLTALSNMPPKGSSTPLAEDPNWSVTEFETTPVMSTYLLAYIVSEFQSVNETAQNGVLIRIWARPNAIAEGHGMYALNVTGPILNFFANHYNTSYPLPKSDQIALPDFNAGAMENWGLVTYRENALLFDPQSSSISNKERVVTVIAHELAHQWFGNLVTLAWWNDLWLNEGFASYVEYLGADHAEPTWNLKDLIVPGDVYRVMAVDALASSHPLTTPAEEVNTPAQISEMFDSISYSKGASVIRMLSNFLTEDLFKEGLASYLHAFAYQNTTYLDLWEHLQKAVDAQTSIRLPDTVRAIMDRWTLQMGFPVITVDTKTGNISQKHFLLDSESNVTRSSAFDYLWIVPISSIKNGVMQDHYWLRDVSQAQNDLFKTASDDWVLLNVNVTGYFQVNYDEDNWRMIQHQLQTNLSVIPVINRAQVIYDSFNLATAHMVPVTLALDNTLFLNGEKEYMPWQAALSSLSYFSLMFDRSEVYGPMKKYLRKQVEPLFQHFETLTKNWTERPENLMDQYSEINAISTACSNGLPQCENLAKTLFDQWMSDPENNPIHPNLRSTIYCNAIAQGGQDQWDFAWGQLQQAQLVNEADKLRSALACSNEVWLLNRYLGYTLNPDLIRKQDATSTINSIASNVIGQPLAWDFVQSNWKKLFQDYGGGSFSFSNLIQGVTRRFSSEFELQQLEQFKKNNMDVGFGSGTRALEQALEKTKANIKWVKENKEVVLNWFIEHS
Method: Leucyl aminopeptidase inhibition according to Cahan R., Hetzroni E., Nisnevitch M., Nitzan Y.: Purification and Identification of a Novel Leucine Aminopeptidase from Bacillus Thuringiensis israelensis. Curr. Microbial (2007) 55: 413-419.
• 1. Enzyme: pig kidney microsomal leucyl aminopeptidase, Type IV-S (Sigma-Aldrich) 3.5 mg of protein/ml, 28 U/mg of protein; diluted with 0.02M Tris-HCl + 0.5 mM CaCl2 buffer pH=8.5 until activity 0.01225U achieved • 2. Substrate: L-leucine p-nitroanilide: 4.2 mg / 269 µl DMSO; solution diluted 1:19 with 0.02 M Tris-HCl buffer, pH = 8.5 + 0.5 mM CaCl2 • 3. 0.02 M Tris-HCl buffer, pH = 8.5 + 0.5 mM CaCl2 • 4. DMSO, inhibitor solution in DMSO
5 µl of leucyl aminopeptidase ([…]), 70 µl of Tris, 5 µl of inhibitor solution in different concentrations (in DMSO) were added to the wells of a microtitration plate, followed by pre-incubation for 30 minutes at 37 °C. Next, 20µl of diluted L-leucine p-nitroanilide solution was added, whereupon the reaction mixture was incubated for 20 minutes at 37 °C, with measurement of absorbance changes for wavelength 405 nm (Fluorostar, Omega, BMG Labtech). The control sample for the enzyme contained analogous components, while instead of the inhibitor solution DMSO (5 µl) was added.
For each inhibitor concentration the percentage inhibition was calculated. The inhibitor concentration required for 50% of enzyme activity inhibition (IC50) was calculated based on linear regression data between the percentage inhibition and the concentration for a given inhibitor.

[2] = test system: Balb/3T3 (normal mouse fibroblasts); assay: Cytotoxic activity against normal cells, SRB test; assay type: cell-based; conditions: Balb/3T3, 72-hour culture
Method: (§1) 4.3. Cytotoxic activity evaluation against normal cell lines with diverse tissue origins using the SRB test:
(§2) • a) normal mouse fibroblasts (BALB/3T3), • b) normal mammary gland cells (MCF-10), • c) normal human epithelium (HLMEC)
(§3) The stock solution of the tested compound with concentration of 20 mg/ml was prepared day before the analysis by dissolving the preparation in DMSO, followed by storage in -20°C. After 24 hours the preparation was thawed and diluted with the culture medium. The compounds were tested in concentrations of 100, 10, 1, 0.1 0.01 µg/ml.
(§4) The following human cancer cell lines were used in the study: HL-60 (promyelocytic leukemia), HL-60/MX2 (promyelocytic leukemia, line resistant to mitoxantrone), MCF7 (mammary gland cancer), LoVo (colorectal cancer), LoVo/Dx (colorectal cancer with multidrug resistance), HCV29T (bladder cancer), A498 (kidney cancer), A549 (lung cancer) and LNCaP (prostate cancer), as well as normal cell lines: BALB3T3 (normal mouse fibroblasts), MCF-10 (normal mammary gland cells) and HLMEC (normal human endothelium).
(§5) The cells in the phase of logarithmic growth were seeded on a 96-well plate (Sarsted) in quantity of 1 x 10^4 cells/well, and then incubated at 37°C, 5% CO2 for 24 hours. Subsequently, the tested compound was added in different concentrations and the incubation was carried out. […] For each assay the samples containing predetermined preparation concentrations were applied in triplicates. The experiments were repeated 3-5 times.
(§6) Sulphorhodamine B (SRB) is an anionic dye which binds to […] amino acids of cellular proteins. The determination of cytotoxic activity in the assay is based on the measurement of the amount of cellular proteins.
(§7) After the incubation is finished the attached cells are fixed with cold 50% TCA (4°C) at 4°C for 1 hour. Next, each well is washed with water and air dried, repeating this step 5 times.
(§8) 0.4% SRB solution (Sigma-Aldrich) dissolved in 1% acetic acid is added consecutively to each well and the staining is carried out for 30 minutes. The unbound dye is removed and the cells are washed 4 times with 1% acetic acid. Next, the plate is air dried for about 5 minutes.
(§9) The bound dye is dissolved by adding 10 mM Tris-base to each well and then OD is determined for wavelength 540 nm (Multiscan RC photometer, Labsystes, Helsinki).

[3] = test system: MCF-10 (normal mammary gland cells); assay: Cytotoxic activity against normal cells, SRB test; assay type: cell-based
Method: as §1, §2, §3, §4, §5, §6, §7, §8, §9

[4] = test system: HLMEC (normal human epithelium); assay: Cytotoxic activity against normal cells, SRB test; assay type: cell-based; conditions: 72-hour culture
Method: as §1, §2, §3, §4, §5, §6, §7, §8, §9

[5] = test system: Lovo (colorectal cancer); assay: Anti-proliferative activity, SRB test; assay type: cell-based, human; conditions: 72-hour culture
Description: (§10) 4.1. Anti-proliferative activity evaluation using the SRB test [Skehan et al., J. Natl. Cancer Inst., 82: 1107-1112, 1990] against human cancer cell lines with diverse tissue origins and determination of the IC50 concentration: • a) colorectal cancer LoVo, • b) colorectal cancer LoVo/DX (with multidrug resistance), • c) breast cancer MCF-7, • d) prostate cancer LNCaP, • e) bladder cancer HCV29T, • f) kidney cancer A498, • g) lung cancer A549
as §3, §4, §5, §6, §7, §8, §9

[6] = test system: HCV29T (bladder cancer); assay: Anti-proliferative activity, SRB test; assay type: cell-based, human; conditions: 72-hour culture
Description: as §10, §3, §4, §5, §6, §7, §8, §9

[7] = test system: A549 (lung cancer); assay: Anti-proliferative activity, SRB test; assay type: cell-based, human; conditions: A549, 72-hour culture
Description: as §10, §3, §4, §5, §6, §7, §8, §9

[8] = test system: A498 (kidney cancer); assay: Anti-proliferative activity, SRB test; assay type: cell-based, human; conditions: A498, 72-hour culture
Description: as §10, §3, §4, §5, §6, §7, §8, §9

[9] = test system: Lovo/Dx (colorectal cancer with multidrug resistance); assay: Anti-proliferative activity, SRB test; assay type: cell-based, human; conditions: 72-hour culture
Description: as §10, §3, §4, §5, §6, §7, §8, §9

[10] = test system: LNCaP (prostate cancer); assay: Anti-proliferative activity, SRB test; assay type: cell-based, human; conditions: 72-hour culture
Description: as §10, §3, §4, §5, §6, §7, §8, §9

[11] = test system: MCF-7 (breast cancer); assay: Anti-proliferative activity, SRB test; assay type: cell-based, human
Description: as §10, §3, §4, §5, §6, §7, §8, §9

[12] = test system: HL-60 (promyelocytic leukemia); assay: Anti-proliferative activity, MTT test; assay type: cell-based, human; conditions: HL-60, 72-hour culture
Method: (§11) 4.2. Anti-proliferative activity evaluation using the MTT test [Marcinkowska et al.: J. Steroid Biochem. Mol. 76: 71-78, 1998] against human cancer cell lines with diverse tissue origins and determination of the IC50 concentration: • a) promyelocytic leukemia HL-60, • b) promyelocytic leukemia HL-60/MX2 (with multidrug resistance)
as §3, §4, §5
(§12) The method involves a measurement of cell number increase inhibition utilizing the redox activity of mitochondria. The determination of biological activity with the MTT (3-(4,5-dimethylthiazol-2-yl)-2,5-diphenyltetrazolium bromide) assay is based on the assumption that reduction of the dye occurs only in viable cells. As a result of mitochondrial dehydrogenase activity the water-soluble tetrazolium salt (thiazolyl blue […] - MTT) is converted to water-insoluble formazan crystals. The quantity of the formed formazan crystals is proportional to the number of cells.
(§13) 3-4 hours before the end of cell incubation 20 µl of MTT solution (5 mg/ml) was added to each well. Next, 80 µl of dissolving mixture (with the following composition: 225 ml DMF (POCh), 67.5 g SDS (Sigma-Aldrich), 275 ml distilled H2O) was added. After 24 hours, formazan crystals were dissolved and OD of the samples was measured for wavelength 570 nm (Multiskan PC photometer, Labsystem, Helsinki).

[13] = test system: HL-60 MX2 (promyelocytic leukemia with multidrug resistance); assay: Anti-proliferative activity, MTT test; assay type: cell-based, human
Method: as §11, §3, §4, §5, §12, §13

[14] = Homo sapiens, MCF10, MCF-10, 72-hour culture, read-out: IC50
[15] = Homo sapiens, MCF7, MCF-7, 72-hour culture, read-out: IC50
[16] = Homo sapiens, HL60/MX2, HL-60 MX2, 72-hour culture, read-out: IC50

Structure (SMILES) | IC50 [1] | IC50 ([2]; Mus musculus, read-out: IC50) | IC50 [3, 14] | IC50 ([4]; Homo sapiens, read-out: IC50) | IC50 ([5]; Homo sapiens, read-out: IC50) | IC50 ([6]; Homo sapiens, read-out: IC50) | IC50 ([7]; Homo sapiens, read-out: IC50) | IC50 ([8]; Homo sapiens, read-out: IC50) | IC50 ([9]; Homo sapiens, read-out: IC50) | IC50 ([10]; Homo sapiens, read-out: IC50) | IC50 [11, 15] | IC50 ([12]; Homo sapiens, read-out: IC50) | IC50 [13, 16] | also measured
CCOC(=O)C1(C(=O)OCC)Cc2cc(O)cc(O)c2C=N1 [Compound 4, 6,8-dihydroxy-3,4-dihydroisoquinoline-3,3-dicarboxylic acid diethyl ester] | 1.35 mM |  |  |  |  |  |  |  |  |  |  |  |  | 
O=C(O)C1Cc2cc(O)c(O)c(O)c2C=N1 (stereo not drawn) [Compound 8, 6,7,8-trihydroxy-3,4-dihydroisoquinoline-3-carboxylic acid] | 3.8 mM | 52.5 ± 22.3 µg/mL (≈ 235 µM) | 18.9 ± 11.4 µg/mL (≈ 84.7 µM) | 33.4 ± 5 µg/mL (≈ 150 µM) | 33.6 ± 9.5 µg/mL (≈ 151 µM) | 28.7 ± 7.2 µg/mL (≈ 129 µM) | 44.3 ± 6.7 µg/mL (≈ 198 µM) | 40 ± 18.4 µg/mL (≈ 179 µM) | 30.1 ± 2.3 µg/mL (≈ 135 µM) | 30.9 ± 5.7 µg/mL (≈ 138 µM) | 18.9 ± 11.4 µg/mL (≈ 84.7 µM) | 27.7 ± 4.3 µg/mL (≈ 124 µM) | 33.2 ± 2.7 µg/mL (≈ 149 µM) | 
N.N.[Cl][Pt][Cl] [Cisplatin, reference compound] |  |  |  |  |  |  |  |  |  |  |  |  |  | IC50 [2]: 2.4 ± 0.3 µg/mL; IC50 ([3]; MCF-10, 72-hour culture): 0.7 µg/mL; IC50 [4]: 2.6 ± 0.3 µg/mL; IC50 [5]: 2.5 ± 1.3 µg/mL; IC50 [6]: 2.7 ± 0.6 µg/mL; IC50 [7]: 3.2 ± 1.0 µg/mL; IC50 [8]: 2.8 ± 0.6 µg/mL; IC50 [9]: 3.0 ± 0.7 µg/mL; IC50 [10]: 6.2 ± 1.3 µg/mL; IC50 ([11]; MCF-7, 72-hour culture): 3.6 ± 0.6 µg/mL; IC50 [12]: 0.4 ± 0.1 µg/mL; IC50 ([13]; HL-60 MX2, 72-hour culture): 0.32 ± 0.02 µg/mL
CCOC(=O)C1(C(=O)OCC)Cc2cc(OCc3ccccc3)cc(OCc3ccccc3)c2C=N1 [Compound 3, 6,8-dibenzyloxy-3,4-dihydroisoquinoline-3,3-dicarboxylic acid diethyl ester] | 0.028 mM | 17.4 ± 7.9 µg/mL (≈ 35.6 µM) | 15.3 µg/mL (≈ 31.4 µM) | 3.3 ± 0.3 µg/mL (≈ 6.77 µM) | 3.1 ± 0.3 µg/mL (≈ 6.36 µM) | 4.3 ± 0.7 µg/mL (≈ 8.82 µM) | 6.4 ± 2.3 µg/mL (≈ 13.1 µM) | 6.5 ± 1.5 µg/mL (≈ 13.3 µM) | 2 ± 0.8 µg/mL (≈ 4.1 µM) | 1.6 ± 0.3 µg/mL (≈ 3.28 µM) | 4.7 ± 0.8 µg/mL (≈ 9.64 µM) | 0.12 µg/mL (≈ 0.246 µM) | 1.3 µg/mL (≈ 2.67 µM) | 
